Reference: US20220378707A1, “1-(((2S,3S,4S)-3-ETHYL-4-FLUORO-5-OXOPYRROLIDIN-2-YL)METHOXY)-7-METHOXYISOQUINOLINE-6-CARBOXAMIDE COMBINATIONS AND ORAL DOSAGE FORMS” (Pfizer Inc., priority 2019, published 2022)

Columns and labels:
[1] = Particle size of PF-06650833 by milling process; type: physicochemical; conditions: PF-06650833 particles
[2] = test system: PBMC and HUVEC+LPS (TLR4 ligand); assay: BioMAP LPS system; type: cell-based, human; conditions: monocyte-driven Th1 inflammation, concentrations of FIGS. 12-14
From the text: (§1) The BioMAP systems consist of human primary cell-based systems designed to model different aspects of the human body in an in vitro format. The 12 systems tested characterized the test compounds across a broad set of systems modeling various human disease states. BioMAP systems were constructed with one or more primary cell types from healthy human donors, with stimuli (such as cytokines or growth factors) added to capture relevant signaling networks that naturally occur in human tissue or pathological conditions. Vascular biology was modeled in both a Th1 (3C system) and a Th2 (4H system) inflammatory environment, as well as in a Th1 inflammatory state specific to arterial smooth muscle cells (CASM3C system). Additional systems recapitulated aspects of the systemic immune response that included monocyte-driven Th1 inflammation (LPS system) or T cell stimulation (SAg system), chronic Th1 inflammation driven by macrophage activation (IMphg system) and the T cell-dependent activation of B cells that occurs in germinal centers (BT system). The BE3C system (Th1) and the BF4T system (Th2) represented airway inflammation of the lung, while the MyoF system modeled myofibroblast-lung tissue remodeling. Lastly, skin biology was addressed in the KF3CT system modeled Th1 cutaneous inflammation and the HDF3CGF system modeled wound healing.
(§2) All cells were from a pool of multiple donors (n=2-6), commercially purchased and handled according to the recommendations of the manufacturers. Human blood derived CD14+ monocytes were differentiated into macrophages in vitro before being added to the IMphg system. Abbreviations were used as follows: human umbilical vein endothelial cells (HUVEC), peripheral blood mononuclear cells (PBMC), human neonatal dermal fibroblasts (HDFn), B cell receptor (BCR), T cell receptor (TCR) and toll-like receptor (TLR). Cell types and stimuli used in each system were as follows:
(§3) 3C system [HUVEC+(IL-1β, TNFα and IFNγ)]; 4H system [HUVEC+(IL-4 and histamine)]; LPS system [PBMC and HUVEC+LPS (TLR4 ligand)]; SAg system [PBMC and HUVEC+T cell receptor (TCR) ligands]; BT system [CD19+B cells and PBMC+(α-IgM and TCR ligands)]; BF4T system [bronchial epithelial cells and HDFn+(TNFα and IL-4)]; BE3C system [bronchial epithelial cells+(IL-1p, TNFα and IFNγ)]; CASM3C system [coronary artery smooth muscle cells+(IL-1p, TNFα and IFNγ)]; HDF3CGF system [HDFn+(IL-1β, TNFα, IFNγ, EGF, bFGF and PDGF-BB)]; KF3CT system [keratinocytes and HDFn+(IL-1β, TNFα and IFNγ)]; MyoF system [differentiated lung myofibroblasts+(TNFα and TGFβ)]; and IMphg system [HUVEC and M1 macrophages+Zymosan (TLR2 ligand)].
(§4) Systems were derived from either single cell types or co-culture systems. Adherent cell types were cultured in 96 or 384-well plates until confluence, followed by the addition of PBMC (SAg and LPS systems). The BT system consisted of CD19+B cells co-cultured with PBMC and stimulated with a BCR activator and low levels of TCR stimulation. Test agents were prepared in DMSO (final concentration <0.1%) and were added 1 hour before stimulation, and remained in culture for 24 hours or as otherwise indicated (48-hrs, MyoF system; 72-hrs, BT system (soluble readouts); 168-hrs, BT system (secreted IgG)). Each plate contained drug controls (e.g., legacy control test agent colchicine at 1.1 μM), negative controls (e.g., non-stimulated conditions) and vehicle controls (e.g., 0.1% DMSO) appropriate for each system. Direct ELISA was used to measure biomarker levels of cell-associated and cell membrane targets. Soluble factors from supernatants were quantified using either HTRF® detection, bead-based multiplex immunoassay or capture ELISA. Overt adverse effects of test agents on cell proliferation and viability (cytotoxicity) were detected by sulforhodamine B (SRB) staining, for adherent cells, and alamarBlue® reduction for cells in suspension. […]

[3] = test system: HDFn+(IL-1β, TNFα, IFNγ, EGF, bFGF and PDGF-BB); assay: BioMAP HDF3CGF system; type: cell-based, human; conditions: wound healing, Th1-type inflammation; concentrations of FIGS. 12-16
From the text: as §1, §2, §3
Systems were derived from either single cell types or co-culture systems. Adherent cell types were cultured in 96 or 384-well plates until confluence, followed by the addition of PBMC (SAg and LPS systems). […] Test agents were prepared in DMSO (final concentration <0.1%) and were added 1 hour before stimulation, and remained in culture for 24 hours or as otherwise indicated (48-hrs, MyoF system; 72-hrs, BT system (soluble readouts); 168-hrs, BT system (secreted IgG)). […] Soluble factors from supernatants were quantified using either HTRF® detection, bead-based multiplex immunoassay or capture ELISA. Overt adverse effects of test agents on cell proliferation and viability (cytotoxicity) were detected by sulforhodamine B (SRB) staining, for adherent cells, and alamarBlue® reduction for cells in suspension.

[4] = test system: CD19+B cells and PBMC+(α-IgM and TCR ligands); assay: BioMAP BT system; type: cell-based, human; conditions: for Inhibition of biomarker readouts in the BT system: T cell dependent B cell activation, concentrations of FIGS. 12-14; for B cell proliferation in the BT system: concentrations of FIGS. 13-14
From the text: as §1, §2, §3, §4

[5] = test system: human primary cell-based systems; assay: BioMAP panel of 12 systems; conditions: BioMAP profile, PF-06651600 200-5400 nM
From the text: as §1, §2, §3, §4

[6] = test system: PBMC and HUVEC+T cell receptor (TCR) ligands; assay: BioMAP SAg system; type: cell-based, human; conditions: for Inhibition of biomarker readouts in the SAg system: T cell-driven Th1 vascular inflammation, concentrations of FIGS. 12-16
From the text: as §1, §2, §3
Systems were derived from either single cell types or co-culture systems. Adherent cell types were cultured in 96 or 384-well plates until confluence, followed by the addition of PBMC (SAg and LPS systems). The BT system consisted of CD19+B cells co-cultured with PBMC and stimulated with a BCR activator and low levels of TCR stimulation. Test agents were prepared in DMSO (final concentration <0.1%) and were added 1 hour before stimulation, and remained in culture for 24 hours or as otherwise indicated (48-hrs, MyoF system; 72-hrs, BT system (soluble readouts); 168-hrs, BT system (secreted IgG)). Each plate contained drug controls (e.g., legacy control test agent colchicine at 1.1 μM), negative controls (e.g., non-stimulated conditions) and vehicle controls (e.g., 0.1% DMSO) appropriate for each system. Direct ELISA was used to measure biomarker levels of cell-associated and cell membrane targets. Soluble factors from supernatants were quantified using either HTRF® detection, bead-based multiplex immunoassay or capture ELISA. Overt adverse effects of test agents on cell proliferation and viability (cytotoxicity) were detected by sulforhodamine B (SRB) staining, for adherent cells, and alamarBlue® reduction for cells in suspension.

[7] = Combination oral pharmacokinetic study of PF-06651600 and PF-06650833 in rat; conditions: male Wistar Han rat, PF-06651600 10 and 50 mg/kg, PF-06650833 30 and 100 mg/kg
Experimental: Doses of 1-((2S,5R)-5-((7H-pyrrolo[2,3-d]pyrimidin-4-yl)amino)-2-methylpiperidin-1-yl)prop-2-en-1-one were 10 and 50 mg/kg and 1-(((2S,3S,4S)-3-ethyl-4-fluoro-5-oxopyrrolidin-2-yl)methoxy)-7-methoxyisoquinoline-6-carboxamide were 30 and 100 mg/kg in male Wistar Han.

[8] = listed as 1-((2S,5R)-5-((7H-Pyrrolo[2,3-d]pyrimidin-4-yl)amino)-2-methylpiperidin-1-yl)pro
[9] = listed as 1-((2S,5R)-5-((7H-pyrrolo[2,3-d]pyrimidin-4-yl)amino)-2-methylpiperidin-1-yl)pro

## CC[C@@H]1[C@H](F)C(=O)N[C@@H]1COc1nccc2cc(C(N)=O)c(OC)cc12 [Fitzmilled, 1-(((2S,3S,4S)-3-Ethyl-4-fluoro-5-oxopyrrolidin-2-yl)methoxy)-7-methoxyisoquinoline-6-carboxamide]
[1]
  Particle size D[4, 3]: 17.0 μm
  Particle size D[v, 0.1]: 2.0 μm
  Particle size D[v, 0.5]: 10.0 μm
  Particle size D[v, 0.9]: 35.0 μm

## CC[C@@H]1[C@H](F)C(=O)N[C@@H]1COc1nccc2cc(C(N)=O)c(OC)cc12 [Jetmilled, 1-(((2S,3S,4S)-3-Ethyl-4-fluoro-5-oxopyrrolidin-2-yl)methoxy)-7-methoxyisoquinoline-6-carboxamide]
[1]
  Particle size D[4, 3]: 4.6 μm
  Particle size D[v, 0.1]: 0.7 μm
  Particle size D[v, 0.5]: 3.9 μm
  Particle size D[v, 0.9]: 9.6 μm

## C=CC(=O)N1C[C@H](Nc2ncnc3[nH]ccc23)CC[C@@H]1C [PF-06651600, 1-((2S,5R)-5-((7H-Pyrrolo[2,3-d]pyrimidin-4-yl)amino)-2-methylpiperidin-1-yl)prop-2-en-1-one]
[2]; [8]
  Inhibition of biomarker readouts in the LPS system: TNFα
[2]; [9]
  Inhibition of biomarker readouts in the LPS system: sTNFα levels were reduced
[3]
  Inhibition of biomarker readouts in the HDF3CGF system: PA-I
[4]; [8]
  Inhibition of biomarker readouts in the BT system: sIgG, sIL-17A, sIL-17F, sIL-6, and TNFα
  B cell proliferation in the BT system: inhibited
[4]; [9]
  Inhibition of biomarker readouts in the BT system: sIgG, sIL-17A, sIL-17F, sIL-6, and sTNFα
  B cell proliferation in the BT system: B cell anti-proliferative activity
[5]; PF-06650833 19-500 nM, tofacitinib 37-1000 nM
  Immunomodulatory activities: Decreased Activity: *sIgG, B cell proliferation, T cell proliferation
[5]
  Tissue Remodeling Activities: Decreased Activity: PAI-I
[6]; [8]
  Inhibition of biomarker readouts in the SAg system: IL-8
[6]; [9]
  Inhibition of biomarker readouts in the SAg system: sIL-s8 levels were reduced
[6]; concentrations of FIGS. 13-14
  Proliferation of T cells in the SAg system: inhibited
[7]
  Effects of PF-06650833 on the pharmacokinetics of PF-06651600: no significant effects

## CC[C@@H]1[C@H](F)C(=O)N[C@@H]1COc1nccc2cc(C(N)=O)c(OC)cc12 [Unmilled, 1-(((2S,3S,4S)-3-Ethyl-4-fluoro-5-oxopyrrolidin-2-yl)methoxy)-7-methoxyisoquinoline-6-carboxamide]
[1]
  Particle size D[4, 3]: 28.4 μm
  Particle size D[v, 0.1]: 4.6 μm
  Particle size D[v, 0.5]: 22.3 μm
  Particle size D[v, 0.9]: 61.6 μm
